# Results reported in US10189854B2, “Substituted pyrimidine compounds” (Grünenthal GmbH, priority 2014, dated 2019).
# Target: human PDE4B1 (Homo sapiens (Human), UniProt Q07343)
# Test: cAMP HTRF assay to determine the activity of hPDE4B1
# Type: biochemical
# Conditions: IC50 inhibition of PDE4B; human recombinant PDE4B1, cAMP HTRF assay
# Procedure, shortened: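 Recombinant human PDE4B1 expressed in Sf9 cells (4.8 U) was incubated with 40 nM cAMP for 30 min at room temperature in Tris buffer, pH 7.8, with MgCl2, DTT and Tween 20. HTRF detection of remaining cAMP followed, with 1 mM IBMX stop, read 60 min later as the 665/620 nm ratio. Results are % inhibition versus control.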
# Chain of human PDE4B1 (Q07343 whole entry): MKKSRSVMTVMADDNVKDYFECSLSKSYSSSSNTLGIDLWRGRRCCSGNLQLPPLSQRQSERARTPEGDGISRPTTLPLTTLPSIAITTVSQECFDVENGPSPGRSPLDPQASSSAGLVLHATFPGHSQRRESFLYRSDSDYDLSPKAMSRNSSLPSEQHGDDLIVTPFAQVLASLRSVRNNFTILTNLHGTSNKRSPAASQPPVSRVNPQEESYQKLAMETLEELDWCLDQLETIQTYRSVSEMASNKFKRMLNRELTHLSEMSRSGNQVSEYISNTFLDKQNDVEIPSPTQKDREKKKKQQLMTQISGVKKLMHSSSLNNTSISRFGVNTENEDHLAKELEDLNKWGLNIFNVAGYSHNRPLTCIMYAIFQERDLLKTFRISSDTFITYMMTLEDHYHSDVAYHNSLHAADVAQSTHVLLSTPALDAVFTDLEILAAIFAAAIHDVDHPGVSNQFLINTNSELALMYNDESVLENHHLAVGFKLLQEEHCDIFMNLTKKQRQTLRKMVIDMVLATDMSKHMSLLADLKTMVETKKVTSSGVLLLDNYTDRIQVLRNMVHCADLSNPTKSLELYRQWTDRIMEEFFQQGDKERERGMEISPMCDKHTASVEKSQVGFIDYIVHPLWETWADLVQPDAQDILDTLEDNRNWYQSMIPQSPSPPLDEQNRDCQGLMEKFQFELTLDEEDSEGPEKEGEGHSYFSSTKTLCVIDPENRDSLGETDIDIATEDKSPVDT
row,IC50,Compound
1,0.1 to 1 µM,"Cc1cccc(F)c1-c1cnc(N2CC3(CC3)c3ccc(C(=O)N4CCOCC4)cc32)nc1 [Compound 69, [1-[5-(2-Fluoro-6-methyl-phenyl)-pyrimidin-2-yl]-spiro[1,2-dihydro-indole-3,1′-cyclopropane]-6-yl]-morpholin-4-yl-methanone]"
2,< 0.1 µM,"CC1COCCN1C(=O)c1ccc2c(c1)N(c1ncc(-c3ccccc3F)cn1)CC21CC1 (centres unmarked) [Compound 103, [1-[5-(2-Fluorophenyl)-pyrimidin-2-yl]-spiro[1,2-dihydro-indole-3,1′-cyclopropane]-6-yl]-(3-methyl-morpholin-4-yl)-methanone]"
3,< 0.1 µM,"Cn1ccc(-c2cnc(N3CC4(CC4)c4ccc(C(=O)N5CCOCC5)cc43)nc2)n1 [Compound 137, [1-[5-(1-Methyl-1H-pyrazol-3-yl)-pyrimidin-2-yl]-spiro[1,2-dihydro-indole-3,1′-cyclopropane]-6-yl]-morpholin-4-yl-methanone]"
4,< 0.1 µM,"NC(=O)c1cccc(-c2cnc(N3CC4(CC4)c4ccc(C(=O)N5CC[C@@H](N)C5)cc43)nc2)c1 [Compound 118, 3-[2-[6-[(3R)-3-Amino-pyrrolidine-1-carbonyl]-spiro[1,2-dihydro-indole-3,1′-cyclopropane]-1-yl]-pyrimidin-5-yl]-benzamide]"
5,0.1 to 1 µM,"O=C(c1cc2c(cn1)C1(CC1)CN2c1ncc(-c2ccccc2F)cn1)N1CCOCC1 [Compound 168, [1-[5-(2-Fluorophenyl)-pyrimidin-2-yl]-spiro[1,2-dihydro-pyrrolo[3,2-c]pyridine-3,1′-cyclopropane]-6-yl]-morpholin-4-yl-methanone]"
6,< 0.1 µM,"N[C@@H]1CCN(C(=O)c2ccc3c(c2)N(c2ncc(-c4ccccc4)cn2)CC32CC2)C1 [Compound 108, [(3R)-3-Amino-pyrrolidin-1-yl]-[1-(5-phenyl-pyrimidin-2-yl)-spiro[1,2-dihydro-indole-3,1′-cyclopropane]-6-yl]methanone]"
7,0.1 to 1 µM,"NC(=O)c1cccc(F)c1-c1cnc(N2CC3(CC3)c3ccc(C(=O)N4CCOCC4)cc32)nc1 [Compound 32, 3-Fluoro-2-[2-[6-(morpholine-4-carbonyl)-spiro[1,2-dihydro-indole-3,1′-cyclopropane]-1-yl]-pyrimidin-5-yl]-benzamide]"
8,0.1 to 1 µM,"Cn1nc(C(F)(F)F)cc1-c1cnc(N2CC3(CC3)c3ccc(C(=O)N4CCOCC4)cc32)nc1 [Compound 134, [1-[5-[2-Methyl-5-(trifluoromethyl)-2H-pyrazol-3-yl]-pyrimidin-2-yl]-spiro[1,2-dihydro-indole-3,1′-cyclopropane]-6-yl]-morpholin-4-yl-methanone]"
9,< 0.1 µM,"COc1ccsc1-c1cnc(N2CC3(CC3)c3ccc(C(=O)N4CCNC(=O)C4)cc32)nc1 [Compound 177, 4-[1-[5-(3-Methoxy-thiophen-2-yl)-pyrimidin-2-yl]-spiro[1,2-dihydro-indole-3,1′-cyclopropane]-6-carbonyl]-piperazin-2-one]"
10,0.1 to 1 µM,"O=C(c1ccc2c(c1)N(c1ncc(Oc3ccccc3F)cn1)CC21CC1)N1CCOCC1 [Compound 179, [1-[5-(2-Fluoro-phenoxy)-pyrimidin-2-yl]-spiro[1,2-dihydro-indole-3,1′-cyclopropane]-6-yl]-morpholin-4-yl-methanone]"
11,0.1 to 1 µM,"NC(=O)c1ccccc1-c1cnc(N2CC3(CC3)c3ccc(C(=O)N4CCOCC4)cc32)nc1 [Compound 25, 2-[2-[6-(Morpholine-4-carbonyl)-spiro[1,2-dihydro-indole-3,1′-cyclopropane]-1-yl]-pyrimidin-5-yl]-benzamide]"
12,< 0.1 µM,"COc1ccc(-c2cnc(N3CC4(CC4)c4ccc(C(=O)N5CCOCC5)cc43)nc2)c(F)c1 [Compound 17, [1-[5-(2-Fluoro-4-methoxy-phenyl)-pyrimidin-2-yl]-spiro[1,2-dihydro-indole-3,1′-cyclopropane]-6-yl]-morpholin-4-yl-methanone]"
13,1 to 10 µM,"O=C(NCC1CCOCC1)c1ccc2c(c1)N(c1ncc(-c3ccccc3F)cn1)CC21CC1 [Compound 82, 1-[5-(2-Fluorophenyl)-pyrimidin-2-yl]-N-(tetrahydro-pyran-4-yl-methyl)-spiro[1,2-dihydro-indole-3,1′-cyclopropane]-6-carboxylic acid amide]"
14,< 0.1 µM,"Morpholin-4-yl-[1-(5-pyrimidin-4-yl-pyrimidin-2-yl)-spiro[1,2-di-hydro-indole-3,1′-cyclopropane]-6-yl]-methanone [Compound 190]"
15,0.1 to 1 µM,"O=C(c1ccc2c(c1)N(c1ncc(-c3ccccc3F)cn1)CC21CC1)N1CCC1 [Compound 89, (Azetidin-1-yl)-[1-[5-(2-fluorophenyl)-pyrimidin-2-yl]-spiro[1,2-dihydro-indole-3,1′-cyclopropane]-6-yl]-methanone]"
16,0.1 to 1 µM,"O=C(c1ccc2c(c1)N(c1ncc(-c3ccccc3C(F)F)cn1)CC21CC1)N1CCOCC1 [Compound 39, [1-[5-[2-(Difluoro-methyl)-phenyl]-pyrimidin-2-yl]spiro[1,2-dihydro-indole-3,1′-cyclopropane]-6-yl]-morpholin-4-yl-methanone]"

row,IC50,Compound
1,< 0.1 µM,"NC(=O)c1ccc(-c2cnc(N3CC4(CC4)c4ccc(C(=O)N5CCOCC5)cc43)nc2)o1 [Compound 156, 5-[2-[6-(Morpholine-4-carbonyl)-spiro[1,2-dihydro-indole-3,1′-cyclopropane]-1-yl]-pyrimidin-5-yl]-furan-2-carboxylic acid amide]"
2,< 0.1 µM,"CN(C)C(=O)c1ccc2c(c1)N(c1ncc(-c3ccccc3)cn1)CC21CC1 [Compound 124, N,N-Dimethyl-1-(5-phenyl-pyrimidin-2-yl)-spiro[1,2-dihydro-indole-3,1′-cyclopropane]-6-carboxylic acid amide]"
3,< 0.1 µM,"CC(=O)Nc1ccc(-c2cnc(N3CC4(CC4)c4ccc(C(=O)N5CCOCC5)cc43)nc2)s1 [Compound 158, N-[5-[2-[6-(Morpholine-4-carbonyl)-spiro[1,2-dihydro-indole-3,1′-cyclopropane]-1-yl]-pyrimidin-5-yl]-thiophen-2-yl]-acetamide]"
4,< 0.1 µM,"O=C1CN(C(=O)c2ccc3c(c2)N(c2ncc(-c4ccccc4F)cn2)CC32CC2)CCN1 [Compound 4, 4-[1-[5-(2-Fluorophenyl)-pyrimidin-2-yl]-spiro[1,2-dihydro-indole-3,1′-cyclopropane]-6-carbonyl]-piperazin-2-one]"
5,1 to 10 µM,O=C(c1ccc2c(c1)N(c1ncc(-c3ccccc3F)cn1)CC21CC1)N1CC2(CCNC2)C1 [Compound 111]
6,0.1 to 1 µM,"O=C(c1ccc2c(c1)N(c1ncc(-c3ccccc3F)cn1)CC21CC1)N1CC(O)C1 [Compound 36, [1-[5-(2-Fluorophenyl)-pyrimidin-2-yl]-spiro[1,2-dihydro-indole-3,1′-cyclopropane]-6-yl]-(3-hydroxy-azetidin-1-yl)-methanone]"
7,1 to 10 µM,"O=C(c1ccc2c(c1)N(c1ncc(-c3ccccc3F)cn1)CC21CC1)N1CCCCC1CO (centres unmarked) [Compound 97, [1-[5-(2-Fluorophenyl)-pyrimidin-2-yl]-spiro[1,2-dihydro-indole-3,1′-cyclopropane]-6-yl]-[2-(hydroxymethyl)-piperidin-1-yl]-methanone]"
8,< 0.1 µM,"Cn1cc(-c2cnc(N3CC4(CC4)c4ccc(C(=O)N5CC[C@@H](N)C5)cc43)nc2)cn1 [Compound 173, [(3R)-3-Amino-pyrrolidin-1-yl]-[1-[5-(1-methyl-1H-pyrazol-4-yl)-pyrimidin-2-yl]-spiro[1,2-dihydro-indole-3,1′-cyclopropane]-6-yl]-methanone]"
9,0.1 to 1 µM,"CNC(=O)c1ccc2c(c1)N(c1ncc(-c3ccccc3F)cn1)CC21CC1 [Compound 61, 1-[5-(2-Fluorophenyl)-pyrimidin-2-yl]-N-methyl-spiro[1,2-dihydro-indole-3,1′-cyclopropane]-6-carboxylic acid amide]"
10,< 0.1 µM,"Cc1n[nH]c(C)c1-c1cnc(N2CC3(CC3)c3ccc(C(=O)N4CCOCC4)cc32)nc1 [Compound 144, [1-[5-(3,5-Dimethyl-1H-pyraozl-4-yl)-pyrimidin-2-yl]-spiro[1,2-di-hydro-indole-3,1′-cyclopropane]-6-yl]-morpholin-4-yl-methanone]"
11,< 0.1 µM,"O=C(c1ccc2c(c1)N(c1ncc(-c3cncc(F)c3)cn1)CC21CC1)N1CCOCC1 [Compound 157, [1-[5-(5-Fluoro-pyridin-3-yl)-pyrimidin-2-yl]-spiro[1,2-dihydro-indole-3,1′-cyclopropane]-6-yl]-morpholin-4-yl-methanone]"
12,< 0.1 µM,"O=C(c1ccc2c(c1)N(c1ncc(-c3ccccc3F)cn1)CC21CC1)N1CC[C@@H](O)C1 [Compound 44, [1-[5-(2-Fluorophenyl)-pyrimidin-2-yl]-spiro[1,2-dihydro-indole-3,1′-cyclopropane]-6-yl]-[(3R)-3-hydroxy-pyrrolidin-1-yl]-methanone]"
13,< 0.1 µM,"COc1cccc(-c2cnc(N3CC4(CC4)c4ccc(C(=O)N5CC6CC5CN6)cc43)nc2)c1 (centres unmarked) [Compound 212, (2,5-Diazabicyclo[2.2.1]heptan-2-yl)-[1-[5-(3-methoxyphenyl)-pyrimidin-2-yl]-spiro[1,2-dihydro-indole-3,1′-cyclopropane]-6-yl]-methanone; 2,2,2-trifluoro-acetic acid]"
14,1 to 10 µM,"O=C(c1ccc2c(c1)N(c1ncc(-c3ccccc3F)cn1)CC21CC1)N1CC2(COC2)C1 [Compound 64, [1-[5-(2-Fluorophenyl)-pyrimidin-2-yl]-spiro[1,2-dihydro-indole-3,1′-cyclopropane]-6-yl]-(2-oxa-6-azaspiro[3.3]heptan-6-yl)-methanone]"
15,< 0.1 µM,"O=C1CN(C(=O)c2ccc3c(c2)N(c2ncc(-c4cc(F)cc(F)c4)cn2)CC32CC2)CCN1 [Compound 128, 4-[1-[5-(3,5-Difluoro-phenyl)-pyrimidin-2-yl]-spiro[1,2-dihydro-indole-3,1′-cyclopropane]-6-carbonyl]-piperazin-2-one]"

row,Compound,IC50
1,"1-[5-(3-Cyano-phenyl)-pyrimidin-2-yl]-N-(2-hydroxy-ethyl)-N-methyl-spiro[1,2-dihydro-indole-3,1′-cyclo-propane]-6-carboxylic acid amide [Compound 193]",< 0.1 µM
